This is an account of results in patent US9382258B2, “Agents for treating pain and uses thereof” (AbbVie Inc., priority 2012, dated 2016).

As usually defined, the IC50 is the concentration needed to halve the response being measured.

One experiment has as its target T1, human Cav2.2 (Homo sapiens, UniProt Q00975).
T1 construct: cells endogenously expressing human Cav2.2; endogenous in cells; host or cells: IMR32 cells
As to the kind of experiment: Calcium flux (FLIPR, Calcium 4 dye) in IMR32 cells endogenously expressing human Cav2.2. The format is cell-based. The settings on record: 60 minute pre-incubation, 2 μM nifedipine to block L-type channels, depolarized with 80 mM KCl, 5 mM CaCl2, average of n≥2 runs unless marked *. The method, then:
Compounds were tested for effect on calcium flux in cells endogenously expressing human Cav2.2. Specifically, IMR32 cells endogenously expressing human Cav2.2 were assayed for Ca^2+ influx using a no-wash calcium indicator dye (Calcium 4 dye: Molecular Probes) and FLIPR technology (Lubin, M L; et al. Assay and Drug Development Technologies, 2006, 4(6), 689-694). The IMR32 cells were maintained in MEM media containing 10% (v/v) FBS, 1% (v/v) antibiotic/antimitotic, 1% (v/v) sodium pyruvate and 1% (v/v) MEM NEAA. Following dissociation in 0.05% (v/v) trypsin/EDTA, cells were seeded into black 1×96-well plates (Corning Cellbind) at a density of 1−1.2×10^5 cells/well and incubated in the maintenance media above for 48 hours at 37° C. Immediately prior to performing the assay the media was removed and cells were loaded for 1.5 hours with 1× Calcium 4 dye prepared in HBSS (137 mM NaCl, 5.4 mM KCl, 0.25 mM Na2HPO4, 0.44 mM KH2PO4, 1.3 mM CaCl2, 1 mM MgSO4, 4.2 mM NaHCO3) containing HEPES pH 7.4 at room temperature. After dye loading and a subsequent 60 minute pre-incubation with compounds (full log dilutions from 10 μM to 0.1 nM) in the presence of 1.3 mM CaCl2 and 2 μM nifedipine to block endogenous L-type channels, the external Ca^2+ concentration was increased to 5 mM CaCl2 and the cells concomitantly depolarized with 80 mM KCl to assay channel activity.
To determine the IC50 values, the percent inhibition of the compound at each concentration was determined relative to the activity in the absence of inhibitor, and data was fitted using non-linear regression sigmoidal dose response curve analysis with GraphPad Prism®. Unless otherwise indicated (*), the reported values are average values from at least two runs (i.e., n≧2).
On the technique in general: A change in cytosolic calcium serves as a functional read-out for many receptors and channels.

Experiment [1] relates to Sprague Dawley rats (CCI neuropathic pain). As to the kind of experiment: Chronic constriction injury (CCI) model of neuropathic pain, tactile allodynia by von Frey filaments. The format is in vivo, rat. The settings on record: male Sprague Dawley rats, 10 mg/kg orally in 10% dimethyl sulfoxide/polyethylene glycol, mechanical allodynia 60 minutes after administration, calculated from log g paw withdrawal threshold. The procedure:
Test compounds can be evaluated for analgesic effect in an in vivo model of neuropathic pain. Specifically, animals were prepared for testing, by use of a surgical procedure that induces neuropathic pain in one paw. IACUC guidelines for rodent survival surgery were followed. All surgical procedures were conducted on a clean, uncluttered surgical station. The area was wiped with a 70% ethanol solution before and after use. All instruments were sterilized by either autoclave or chemical sterilant (such as 2% glutaraldehyde>10 hours). Surgeons wore sterile gloves (for the initial procedure), clean lab coat or scrubs, hairnet or cap, and a half-mask respirator (when not working under a hood). Surgeons thoroughly washed their hands prior to donning sterile gloves. Gloves were disinfected in-between animals by cleansing with povidone iodine, chlorhexidine or 70% alcohol for at least 30 seconds. If multiple surgeries were performed, the instruments were cleaned and sterilized between procedures with hot glass beads (>10 seconds). To prevent thermal or chemical burns, the instruments were cooled by rinsing in sterile saline before use.
Male, Sprague Dawley® rats, 175-200 g were used for surgeries. To minimize post-operative dehydration/maintain blood volume during the surgery, warmed sterile saline or Lactate Ringers solution at 10-15 mL/kg was administered subcutaneously immediately before or after surgery. This facilitates better renal function and presumably anesthesia product excretion post surgery. For all surgical procedures, anesthesia was induced with 4-5% isoflurane. Anesthesia was maintained during surgery with 1-3% isoflurane. Following induction, the surgical site was carefully shaved and the exposed area was aseptically prepared with povidone-iodine scrub solution and 70% ethanol 2-3 times.
Chronic constriction injury (CCI), a model of neuropathic pain, was produced by following the method of Bennett and Xie (Bennett, G., et al. Pain, 1988, 33, 87-107). After site sterilization and anesthetic procedures outline above were completed, a 1.5 cm incision is made at the mid-thigh level to expose the biceps femoris and gluteous superficialis (right side), which were then separated by blunt dissection. The common sciatic nerve was exposed, isolated, and loosely ligated by four 5-0 chromic gut ligatures with <1 mm spacing between each. The surgical site was closed in layers—muscle is closed with 6.0 absorbable sutures, and the skin closed with wound clips. Animals were allowed to recover on a warming plate and were returned to their home cages when fully ambulatory. Animals were not be used for testing until at least 10 days following surgery.
To measure mechanical sensitivity, tactile allodynia was measured using calibrated von Frey filaments (Stoelting, Wood Dale, Ill.) as described by Chaplan et al. (Chaplan S., et al. J of Neuroscience Methods 1994, 53, 55-63). Filament strengths used were: 0.4, 0.6, 1.0, 2, 4, 6, 8, and 15 g. Rats were placed into inverted individual plastic containers (20×12.5×20 cm) on top of a suspended wire mesh grid, and acclimated to the test chambers for at least 20 minutes. Filaments were applied perpendicular to the mid-plantar paw surface with enough force to cause slight buckling and held in place for 6-8 seconds. Positive responses included an abrupt withdrawal of the paw from the stimulus or flinching behavior immediately following removal of the stimulus. The maximum force applied was 15 g. The 50% paw withdrawal threshold (PWT) was calculated in grams (g) using the up-down method of Dixon (Dixon W. Ann Rev Pharmacol Toxicol 1980, 20, 441-462). […] All compounds were orally administered at 10 mg/kg in 10% dimethyl sulfoxide/polyethylene glycol at a volume of 2.0 mL/kg, and mechanical allodynia was determined 60 minutes following compound administration
The data are reported as log g values and the percentage of maximum possible effect (% MPE) is calculated using log g values with the Formula: […]

T1 sequence (Q00975 whole entry): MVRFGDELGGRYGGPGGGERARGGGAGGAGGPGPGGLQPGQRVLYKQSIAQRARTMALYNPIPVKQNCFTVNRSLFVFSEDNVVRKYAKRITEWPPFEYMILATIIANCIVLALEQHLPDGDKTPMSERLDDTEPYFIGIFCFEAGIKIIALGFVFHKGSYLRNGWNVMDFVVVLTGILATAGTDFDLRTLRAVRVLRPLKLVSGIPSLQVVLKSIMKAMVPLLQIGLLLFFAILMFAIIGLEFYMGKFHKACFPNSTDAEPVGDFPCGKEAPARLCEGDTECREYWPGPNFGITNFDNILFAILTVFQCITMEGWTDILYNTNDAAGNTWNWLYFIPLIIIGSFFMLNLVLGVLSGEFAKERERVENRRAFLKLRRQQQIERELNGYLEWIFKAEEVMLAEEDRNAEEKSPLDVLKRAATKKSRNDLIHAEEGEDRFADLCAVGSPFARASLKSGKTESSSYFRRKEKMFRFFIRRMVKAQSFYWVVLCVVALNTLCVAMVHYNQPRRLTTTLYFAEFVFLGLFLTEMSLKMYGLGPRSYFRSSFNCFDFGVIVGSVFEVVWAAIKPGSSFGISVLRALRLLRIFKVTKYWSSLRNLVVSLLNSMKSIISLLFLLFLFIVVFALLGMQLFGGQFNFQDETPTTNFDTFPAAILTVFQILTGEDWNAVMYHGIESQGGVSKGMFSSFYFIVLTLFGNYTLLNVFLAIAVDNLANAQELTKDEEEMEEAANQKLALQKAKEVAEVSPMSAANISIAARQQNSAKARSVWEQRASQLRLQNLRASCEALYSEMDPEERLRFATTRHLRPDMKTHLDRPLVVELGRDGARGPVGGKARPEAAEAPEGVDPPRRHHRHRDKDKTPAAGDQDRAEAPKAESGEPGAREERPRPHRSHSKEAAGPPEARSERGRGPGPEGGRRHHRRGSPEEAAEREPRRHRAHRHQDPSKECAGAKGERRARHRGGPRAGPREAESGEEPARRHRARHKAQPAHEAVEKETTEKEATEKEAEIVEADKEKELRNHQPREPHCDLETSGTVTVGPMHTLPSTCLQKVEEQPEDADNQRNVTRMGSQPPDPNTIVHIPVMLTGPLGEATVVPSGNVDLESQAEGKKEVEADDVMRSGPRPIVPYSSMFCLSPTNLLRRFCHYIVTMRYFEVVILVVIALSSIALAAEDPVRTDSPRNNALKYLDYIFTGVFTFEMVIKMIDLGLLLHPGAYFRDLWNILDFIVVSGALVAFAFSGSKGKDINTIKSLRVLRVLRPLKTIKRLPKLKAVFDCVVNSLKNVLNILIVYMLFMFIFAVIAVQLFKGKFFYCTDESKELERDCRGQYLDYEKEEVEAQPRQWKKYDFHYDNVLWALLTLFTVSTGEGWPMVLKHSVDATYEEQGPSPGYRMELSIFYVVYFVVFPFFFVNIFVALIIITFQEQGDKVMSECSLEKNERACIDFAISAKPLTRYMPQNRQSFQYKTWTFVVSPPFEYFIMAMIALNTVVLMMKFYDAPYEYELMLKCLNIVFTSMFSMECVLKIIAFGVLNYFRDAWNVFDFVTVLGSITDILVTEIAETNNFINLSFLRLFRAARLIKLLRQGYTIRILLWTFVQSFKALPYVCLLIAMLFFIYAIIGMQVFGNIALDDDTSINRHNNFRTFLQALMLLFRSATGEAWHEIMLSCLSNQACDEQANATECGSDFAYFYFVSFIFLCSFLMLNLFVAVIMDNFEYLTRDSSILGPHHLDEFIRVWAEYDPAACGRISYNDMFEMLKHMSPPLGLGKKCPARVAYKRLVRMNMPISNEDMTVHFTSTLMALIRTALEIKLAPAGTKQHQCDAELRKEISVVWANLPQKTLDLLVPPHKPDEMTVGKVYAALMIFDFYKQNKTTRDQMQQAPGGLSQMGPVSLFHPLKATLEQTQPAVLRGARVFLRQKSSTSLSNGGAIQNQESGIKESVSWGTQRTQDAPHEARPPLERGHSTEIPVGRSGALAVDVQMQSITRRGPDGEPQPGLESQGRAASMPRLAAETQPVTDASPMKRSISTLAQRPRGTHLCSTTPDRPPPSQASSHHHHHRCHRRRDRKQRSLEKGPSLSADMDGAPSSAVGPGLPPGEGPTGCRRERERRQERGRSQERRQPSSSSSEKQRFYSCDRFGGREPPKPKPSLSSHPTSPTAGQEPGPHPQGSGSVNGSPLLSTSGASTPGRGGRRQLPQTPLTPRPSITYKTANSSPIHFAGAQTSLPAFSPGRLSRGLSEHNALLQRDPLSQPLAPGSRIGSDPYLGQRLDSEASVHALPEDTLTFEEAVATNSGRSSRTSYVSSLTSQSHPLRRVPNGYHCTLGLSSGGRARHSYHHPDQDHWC
T1 sequence (P54284 whole entry partner): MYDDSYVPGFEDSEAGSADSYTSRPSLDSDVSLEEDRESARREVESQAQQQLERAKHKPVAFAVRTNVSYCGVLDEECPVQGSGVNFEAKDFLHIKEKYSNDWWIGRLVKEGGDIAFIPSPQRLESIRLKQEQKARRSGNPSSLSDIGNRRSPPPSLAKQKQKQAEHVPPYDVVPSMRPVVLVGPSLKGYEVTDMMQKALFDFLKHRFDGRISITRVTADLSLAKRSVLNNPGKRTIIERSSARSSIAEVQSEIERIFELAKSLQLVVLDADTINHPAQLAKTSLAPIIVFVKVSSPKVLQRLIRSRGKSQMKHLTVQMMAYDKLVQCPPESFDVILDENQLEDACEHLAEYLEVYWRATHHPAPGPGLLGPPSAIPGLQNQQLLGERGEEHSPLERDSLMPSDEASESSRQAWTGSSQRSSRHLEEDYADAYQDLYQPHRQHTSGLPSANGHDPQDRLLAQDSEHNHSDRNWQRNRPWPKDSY
T1 sequence (P54289 25-956 partner limits assumed): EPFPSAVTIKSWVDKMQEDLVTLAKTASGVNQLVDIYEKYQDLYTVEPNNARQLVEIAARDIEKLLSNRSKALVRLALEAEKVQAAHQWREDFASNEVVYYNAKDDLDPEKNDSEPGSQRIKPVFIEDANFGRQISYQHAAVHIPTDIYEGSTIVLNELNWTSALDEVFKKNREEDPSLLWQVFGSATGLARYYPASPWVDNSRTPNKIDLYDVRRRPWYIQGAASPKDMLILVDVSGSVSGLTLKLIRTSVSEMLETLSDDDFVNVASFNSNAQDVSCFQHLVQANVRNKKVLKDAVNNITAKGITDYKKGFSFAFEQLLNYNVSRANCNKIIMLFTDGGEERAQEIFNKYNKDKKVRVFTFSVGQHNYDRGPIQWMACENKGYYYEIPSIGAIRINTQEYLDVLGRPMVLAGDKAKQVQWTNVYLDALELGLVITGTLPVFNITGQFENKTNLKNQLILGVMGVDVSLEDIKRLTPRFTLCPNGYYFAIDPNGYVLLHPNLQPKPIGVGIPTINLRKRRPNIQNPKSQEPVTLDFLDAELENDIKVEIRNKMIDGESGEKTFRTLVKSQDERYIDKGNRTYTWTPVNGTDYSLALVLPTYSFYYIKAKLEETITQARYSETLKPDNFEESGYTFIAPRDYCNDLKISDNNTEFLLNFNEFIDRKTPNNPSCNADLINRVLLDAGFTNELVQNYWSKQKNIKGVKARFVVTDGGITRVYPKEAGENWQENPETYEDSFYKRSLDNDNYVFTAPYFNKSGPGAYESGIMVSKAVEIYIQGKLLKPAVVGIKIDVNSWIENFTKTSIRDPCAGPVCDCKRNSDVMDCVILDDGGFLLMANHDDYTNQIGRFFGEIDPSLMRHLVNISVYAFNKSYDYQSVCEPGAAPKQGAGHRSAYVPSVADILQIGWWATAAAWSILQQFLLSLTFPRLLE
T1 sequence (P54289 957-1103 partner limits assumed): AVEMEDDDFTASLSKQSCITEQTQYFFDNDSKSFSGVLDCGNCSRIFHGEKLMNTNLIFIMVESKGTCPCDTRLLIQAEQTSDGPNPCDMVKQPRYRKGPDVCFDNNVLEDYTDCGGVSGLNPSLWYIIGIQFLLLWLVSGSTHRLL

Regarding `O=C(c1cccc(C(F)(F)F)c1)N1CCCN2C[C@H](Oc3cnc(C4CC4)cn3)C[C@H]2C1` [Example 7, [(8R,9aS)-8-[(5-cyclopropylpyrazin-2-yl)oxy]hexahydro-1H-pyrrolo[1,2-a][1,4]diazepin-2(3H)-yl][3-(trifluoromethyl)phenyl]methanone], on human Cav2.2, the IC50 came out at 1660 nM. The “% MPE” value in experiment [1] was 44%. In the case of `O=C(c1ccc(C(F)(F)F)cc1)N1CCCN2C[C@H](Oc3cnc(C4CC4)cn3)C[C@H]2C1` [Example 13, [(8R,9aS)-8-[(5-cyclopropylpyrazin-2-yl)oxy]hexahydro-1H-pyrrolo[1,2-a][1,4]diazepin-2(3H)-yl][4-(trifluoromethyl)phenyl]methanone], the IC50 on human Cav2.2 is 880 nM. Further, the “% MPE” value in experiment [1] is recorded as 40%. The corresponding values for `FC(F)(F)c1ccc(N2CCCN3C[C@H](Oc4cnc(C5CC5)cn4)C[C@H]3C2)nc1` [Example 19, (8R,9aS)-8-[(5-cyclopropylpyrazin-2-yl)oxy]-2-[5-(trifluoromethyl)pyridin-2-yl]octahydro-1H-pyrrolo[1,2-a][1,4]diazepane] are 1210 nM and 36%.

In the case of `O=C(c1cccc(C(F)(F)F)c1)N1CCC(=O)N2C[C@H](Oc3cnc(C4CC4)cn3)C[C@H]2C1` [Example 32, (8R,9aS)-8-[(5-cyclopropylpyrazin-2-yl)oxy]-2-[3-(trifluoromethyl)benzoyl]octahydro-5H-pyrrolo[1,2-a][1,4]diazepin-5-one], at human Cav2.2, the IC50 came to 1720 nM. The “% MPE” value in experiment [1] is 46%. Take `O=C1CCN(S(=O)(=O)c2cccc(C(F)(F)F)c2)C[C@@H]2C[C@@H](Oc3ccc(C(F)(F)F)nc3)CN12` [Example 53, (8R,9aS)-2-{[3-(trifluoromethyl)phenyl]sulfonyl}-8-{[6-(trifluoromethyl)pyridin-3-yl]oxy}octahydro-5H-pyrrolo[1,2-a][1,4]diazepin-5-one]: the IC50 at human Cav2.2 was 4020 nM.

`O=C1CCN(S(=O)(=O)c2ccc(C(F)(F)F)cc2)C[C@@H]2C[C@@H](Oc3ccc(C(F)(F)F)nc3)CN12` [Example 54, (8R,9aS)-2-{[4-(trifluoromethyl)phenyl]sulfonyl}-8-{[6-(trifluoromethyl)pyridin-3-yl]oxy}octahydro-5H-pyrrolo[1,2-a][1,4]diazepin-5-one]: the IC50 on human Cav2.2 amounted to 1290 nM. On the same count and under the same terms, the same measure for `O=C1CCN(c2ccc(C(F)(F)F)cn2)C[C@H]2C[C@@H](Oc3cnc(C4CC4)cn3)CN12` [Example 55, (8R,9aR)-8-[(5-cyclopropylpyrazin-2-yl)oxy]-2-[5-(trifluoromethyl)pyridin-2-yl]octahydro-5H-pyrrolo[1,2-a][1,4]diazepin-5-one]: 3430 nM; for `O=C1CCN(Cc2ccc(OC(F)(F)F)cc2)C[C@H]2C[C@@H](Oc3cnc(C4CC4)cn3)CN12` [Example 56, (8R,9aR)-8-[(5-cyclopropylpyrazin-2-yl)oxy]-2-[4-(trifluoromethoxy)benzyl]octahydro-5H-pyrrolo[1,2-a][1,4]diazepin-5-one]: 2500 nM; for `O=C(c1cccc(C(F)(F)F)c1)N1CCC(=O)N2C[C@H](Oc3cnc(C4CC4)cn3)C[C@@H]2C1` [Example 57, (8R,9aR)-8-[(5-cyclopropylpyrazin-2-yl)oxy]-2-[3-(trifluoromethyl)benzoyl]octahydro-5H-pyrrolo[1,2-a][1,4]diazepin-5-one]: 11200 nM.

`O=C1CCN(S(=O)(=O)c2ccc(C(F)(F)F)cc2)C[C@H]2C[C@@H](Oc3cnc(C4CC4)cn3)CN12` [Example 58, (8R,9aR)-8-[(5-cyclopropylpyrazin-2-yl)oxy]-2-{[4-(trifluoromethyl)phenyl]sulfonyl}octahydro-5H-pyrrolo[1,2-a][1,4]diazepin-5-one]: the IC50 on human Cav2.2 turned out to be 3750 nM.

On to `O=C1CCN(Cc2ccc(OC(F)(F)F)cc2)C[C@@H]2C[C@H](Oc3cnc(C4CC4)cn3)CN12` [Example 59, (8S,9aS)-8-[(5-cyclopropylpyrazin-2-yl)oxy]-2-[4-(trifluoromethoxy)benzyl]octahydro-5H-pyrrolo[1,2-a][1,4]diazepin-5-one], for which, at human Cav2.2, the IC50 came to 3170 nM. Regarding `O=C(c1cccc(C(F)(F)F)c1)N1CCC(=O)N2C[C@@H](Oc3cnc(C4CC4)cn3)C[C@H]2C1` [Example 60, (8S,9aS)-8-[(5-cyclopropylpyrazin-2-yl)oxy]-2-[3-(trifluoromethyl)benzoyl]octahydro-5H-pyrrolo[1,2-a][1,4]diazepin-5-one], on human Cav2.2, the IC50 came to 18800 nM.

On to `O=C1CCN(S(=O)(=O)c2ccc(C(F)(F)F)cc2)C[C@@H]2C[C@H](Oc3cnc(C4CC4)cn3)CN12` [Example 61, (8S,9aS)-8-[(5-cyclopropylpyrazin-2-yl)oxy]-2-{[4-(trifluoromethyl)phenyl]sulfonyl}octahydro-5H-pyrrolo[1,2-a][1,4]diazepin-5-one], for which the IC50 on human Cav2.2 was 1200 nM.

For `O=C1CCN(Cc2ccc(OC(F)(F)F)cc2)C[C@H]2C[C@H](Oc3cnc(C4CC4)cn3)CN12` [Example 62, (8S,9aR)-8-[(5-cyclopropylpyrazin-2-yl)oxy]-2-[4-(trifluoromethoxy)benzyl]octahydro-5H-pyrrolo[1,2-a][1,4]diazepin-5-one], the IC50 on human Cav2.2 is 3230 nM. As to `O=C(c1cccc(C(F)(F)F)c1)N1CCC(=O)N2C[C@@H](Oc3cnc(C4CC4)cn3)C[C@@H]2C1` [Example 63, (8S,9aR)-8-[(5-cyclopropylpyrazin-2-yl)oxy]-2-[3-(trifluoromethyl)benzoyl]octahydro-5H-pyrrolo[1,2-a][1,4]diazepin-5-one], the half-maximal inhibitory concentration (IC50) on human Cav2.2 was 22500 nM. Still for that read-out and setting: the same measure for `O=C1CCN(S(=O)(=O)c2ccc(C(F)(F)F)cc2)C[C@H]2C[C@H](Oc3cnc(C4CC4)cn3)CN12` [Example 64, (8S,9aR)-8-[(5-cyclopropylpyrazin-2-yl)oxy]-2-{[4-(trifluoromethyl)phenyl]sulfonyl}octahydro-5H-pyrrolo[1,2-a][1,4]diazepin-5-one]: 2200 nM. The same measure, in the same setting: the same measure for “(8R,9aS)-8-[(5-cyclopropylpyrazin-2-yl)oxy]-2-{[3-(trifluoromethyl)phenyl]sulfonyl}octahydro-1H-pyrrolo[1,2-a][1,4]diazepane [Example 1]”: 320 nM.
